Source: patent US20020137929A1, “1 - (3-heterocyclylphenyl) isothiourea, -isourea, -guanidine and -amidine herbicidal agents” (Intellectual Property Department, BASF Aktiengesellschaft, priority 1998, published 2002)

What was measured:
SETVI (Foxtail, Green) = assay: Postemergence herbicidal evaluation; assay type: in vivo, Setaria viridis; details: postemergence
Method in brief: (§1)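 Herbicidal effect was judged by eye on a 0–9 scale covering stand, vigor, deformity, size and chlorosis, compared with controls, four to five weeks after seedlings about two weeks old were sprayed (40 psi, ~0.0156–0.500 kg/ha).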

ZEAMX (Corn, Field) [1] = assay: Postemergence herbicidal evaluation; assay type: in vivo, Zea mays; details: postemergence
Method in brief: as §1

CASOB (Sicklepod) = assay: Preemergence herbicidal evaluation; assay type: in vivo, Cassia obtusifolia; details: rated 4-5 weeks after treatment, rating scale 0-9
Method in brief: (§2)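 Each species is sown separately in potting soil over roughly an inch of soil before any emergence. The soil surface then receives an aqueous acetone spray delivering about 0.0156 to 0.500 kg/ha of compound. After four to five weeks, injury is scored from 0 to 9 relative to a control.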

ZEAMX (Corn, Field) [2] = assay: Preemergence herbicidal evaluation; assay type: in vivo, Zea mays; details: rated 4-5 weeks after treatment, rating scale 0-9
Method in brief: as §2

[3] = test system: TRZAWR (Wheat, Winter, cv Riband); assay: Preemergence herbicidal evaluation; assay type: in vivo, Triticum aestivum; details: rated 4-5 weeks after treatment, rating scale 0-9
Method in brief: as §2

[4] = test system: GLXMAW (Soybean, Williams); assay: Preemergence herbicidal evaluation; assay type: in vivo, Glycine max, (L.) Merr. cv Williams; details: rated 4-5 weeks after treatment, rating scale 0-9
Method in brief: as §2

ECHCG (Barnyardgrass) [5] = assay: Postemergence herbicidal evaluation; assay type: in vivo, Echinochloa crus-galli; details: postemergence
Method in brief: as §1

ORYSAT (Rice, Tebonnet) = assay: Postemergence herbicidal evaluation; assay type: in vivo, Oryza sativa, (L.) Tebonnet; details: postemergence
Method in brief: as §1

ABUTH (Velvetleaf) [6] = assay: Preemergence herbicidal evaluation; assay type: in vivo, Abutilon theophrasti; details: rated 4-5 weeks after treatment, rating scale 0-9
Method in brief: as §2

[7] = test system: CHEAL (Lambsquarters, Common); assay: Preemergence herbicidal evaluation; assay type: in vivo, Chenopodium album; details: rated 4-5 weeks after treatment, rating scale 0-9
Method in brief: as §2

[8] = test system: IPOHE (Morningglory, Ivyleaf); assay: Postemergence herbicidal evaluation; assay type: in vivo, Ipomoea hederacea; details: postemergence
Method in brief: as §1

ECHCG (Barnyardgrass) [9] = assay: Preemergence herbicidal evaluation; assay type: in vivo, Echinochloa crus-galli; details: rated 4-5 weeks after treatment, rating scale 0-9
Method in brief: as §2

[10] = test system: CHEAL (Lambsquarters, Common); assay: Postemergence herbicidal evaluation; assay type: in vivo, Chenopodium album; details: postemergence
Method in brief: as §1

ABUTH (Velvetleaf) [11] = assay: Postemergence herbicidal evaluation; assay type: in vivo, Abutilon theophrasti; details: postemergence
Method in brief: as §1

[12] = test system: IPOHE (Morningglory, Ivyleaf); assay: Preemergence herbicidal evaluation; assay type: in vivo, Ipomoea hederacea; details: rated 4-5 weeks after treatment, rating scale 0-9
Method in brief: as §2

Cn1c(C(F)(F)F)cc(=O)n(-c2cc(N=C3SCC(=O)N3Cc3ccc(F)cc3)c(Cl)cc2F)c1=O [Compound 151, 3-{4-Chloro-2-fluoro-5-{[3-(p-fluorobenzyl)-4-oxo-2-thiazolidinylidene]amino}phenyl}-1-methyl-6-(trifluoromethyl)-2,4(1H,3H)-pyrimidinedione]
Herbicidal rating SETVI (SETVI (Foxtail, Green); rate 0.0156 kg/ha): 5.0 | Herbicidal rating SETVI (SETVI (Foxtail, Green); rate 0.0313 kg/ha): 5.0 | Herbicidal rating SETVI (SETVI (Foxtail, Green); rate 0.0625 kg/ha): 9.0 | Herbicidal rating ZEAMX (ZEAMX (Corn, Field) [1]; rate 0.0156 kg/ha): 4.0 | Herbicidal rating ZEAMX (ZEAMX (Corn, Field) [1]; rate 0.0313 kg/ha): 4.5 | Herbicidal rating ZEAMX (ZEAMX (Corn, Field) [1]; rate 0.0625 kg/ha): 5.0 | Preemergence herbicidal rating CASOB (CASOB (Sicklepod); rate 0.0156 kg/ha): 0.0 | Preemergence herbicidal rating CASOB (CASOB (Sicklepod); rate 0.0313 kg/ha): 2.0 | Preemergence herbicidal rating CASOB (CASOB (Sicklepod); rate 0.0625 kg/ha): 2.0 | Preemergence herbicidal rating CASOB (CASOB (Sicklepod); rate 0.1250 kg/ha): 9.0 | Preemergence herbicidal rating CASOB (CASOB (Sicklepod); rate 0.2500 kg/ha): 9.0 | Preemergence herbicidal rating ZEAMX (ZEAMX (Corn, Field) [2]; rate 0.0156 kg/ha): 7.0 | Preemergence herbicidal rating ZEAMX (ZEAMX (Corn, Field) [2]; rate 0.0313 kg/ha): 7.0 | Preemergence herbicidal rating ZEAMX (ZEAMX (Corn, Field) [2]; rate 0.0625 kg/ha): 7.0 | Preemergence herbicidal rating ZEAMX (ZEAMX (Corn, Field) [2]; rate 0.1250 kg/ha): 9.0 | Preemergence herbicidal rating ZEAMX (ZEAMX (Corn, Field) [2]; rate 0.2500 kg/ha): 9.0 | Preemergence herbicidal rating TRZAWR ([3]; rate 0.0156 kg/ha): 2.0 | Preemergence herbicidal rating TRZAWR ([3]; rate 0.0313 kg/ha): 6.0 | Preemergence herbicidal rating TRZAWR ([3]; rate 0.0625 kg/ha): 5.0 | Preemergence herbicidal rating TRZAWR ([3]; rate 0.1250 kg/ha): 8.0 | Preemergence herbicidal rating TRZAWR ([3]; rate 0.2500 kg/ha): 9.0 | Preemergence herbicidal rating GLXMAW ([4]; rate 0.0156 kg/ha): 2.0 | Preemergence herbicidal rating GLXMAW ([4]; rate 0.0313 kg/ha): 5.0 | Preemergence herbicidal rating GLXMAW ([4]; rate 0.0625 kg/ha): 4.0 | Preemergence herbicidal rating GLXMAW ([4]; rate 0.1250 kg/ha): 7.0 | Preemergence herbicidal rating GLXMAW ([4]; rate 0.2500 kg/ha): 7.0 | Herbicidal rating ECHCG (ECHCG (Barnyardgrass) [5]; rate 0.0156 kg/ha): 3.0 | Herbicidal rating ECHCG (ECHCG (Barnyardgrass) [5]; rate 0.0313 kg/ha): 3.0 | Herbicidal rating ECHCG (ECHCG (Barnyardgrass) [5]; rate 0.0625 kg/ha): 4.0 | Herbicidal rating ORYSAT (ORYSAT (Rice, Tebonnet); rate 0.0156 kg/ha): 2.0 | Herbicidal rating ORYSAT (ORYSAT (Rice, Tebonnet); rate 0.0313 kg/ha): 2.5 | Herbicidal rating ORYSAT (ORYSAT (Rice, Tebonnet); rate 0.0625 kg/ha): 3.5 | Preemergence herbicidal rating ABUTH (ABUTH (Velvetleaf) [6]; rate 0.0156 kg/ha): 9.0 | Preemergence herbicidal rating ABUTH (ABUTH (Velvetleaf) [6]; rate 0.0313 kg/ha): 9.0 | Preemergence herbicidal rating ABUTH (ABUTH (Velvetleaf) [6]; rate 0.0625 kg/ha): 9.0 | Preemergence herbicidal rating ABUTH (ABUTH (Velvetleaf) [6]; rate 0.1250 kg/ha): 9.0 | Preemergence herbicidal rating ABUTH (ABUTH (Velvetleaf) [6]; rate 0.2500 kg/ha): 9.0 | Preemergence herbicidal rating CHEAL ([7]; rate 0.0156 kg/ha): 9.0 | Preemergence herbicidal rating CHEAL ([7]; rate 0.0313 kg/ha): 9.0 | Preemergence herbicidal rating CHEAL ([7]; rate 0.0625 kg/ha): 9.0 | Preemergence herbicidal rating CHEAL ([7]; rate 0.1250 kg/ha): 9.0 | Preemergence herbicidal rating CHEAL ([7]; rate 0.2500 kg/ha): 9.0 | Herbicidal rating IPOHE ([8]; rate 0.0156 kg/ha): 9.0 | Herbicidal rating IPOHE ([8]; rate 0.0313 kg/ha): 9.0 | Herbicidal rating IPOHE ([8]; rate 0.0625 kg/ha): 9.0 | Preemergence herbicidal rating ECHCG (ECHCG (Barnyardgrass) [9]; rate 0.0156 kg/ha): 2.0 | Preemergence herbicidal rating ECHCG (ECHCG (Barnyardgrass) [9]; rate 0.0313 kg/ha): 9.0 | Preemergence herbicidal rating ECHCG (ECHCG (Barnyardgrass) [9]; rate 0.0625 kg/ha): 7.0 | Preemergence herbicidal rating ECHCG (ECHCG (Barnyardgrass) [9]; rate 0.1250 kg/ha): 9.0 | Preemergence herbicidal rating ECHCG (ECHCG (Barnyardgrass) [9]; rate 0.2500 kg/ha): 9.0 | Herbicidal rating CHEAL ([10]; rate 0.0156 kg/ha): 9.0 | Herbicidal rating CHEAL ([10]; rate 0.0313 kg/ha): 7.0 | Herbicidal rating CHEAL ([10]; rate 0.0625 kg/ha): 9.0 | Herbicidal rating ABUTH (ABUTH (Velvetleaf) [11]; rate 0.0156 kg/ha): 9.0 | Herbicidal rating ABUTH (ABUTH (Velvetleaf) [11]; rate 0.0313 kg/ha): 9.0 | Herbicidal rating ABUTH (ABUTH (Velvetleaf) [11]; rate 0.0625 kg/ha): 9.0 | Preemergence herbicidal rating IPOHE ([12]; rate 0.0156 kg/ha): 4.0 | Preemergence herbicidal rating IPOHE ([12]; rate 0.0313 kg/ha): 9.0 | Preemergence herbicidal rating IPOHE ([12]; rate 0.0625 kg/ha): 9.0 | Preemergence herbicidal rating IPOHE ([12]; rate 0.1250 kg/ha): 9.0 | Preemergence herbicidal rating IPOHE ([12]; rate 0.2500 kg/ha): 9.0

CCOC(=O)CN1C(=O)C(Br)SC1=Nc1cc(-n2c(=O)cc(C(F)(F)F)n(C)c2=O)c(F)cc1Cl (centres unmarked) [Compound 153, Ethyl 5-bromo-2-[{2-chloro-5-[3,6-dihydro-3-methyl-2,6-dioxo-4-(trifluoromethyl)-1(2H)-pyrimidinyl]-4-fluorophenyl}imino}-4-oxo-3-thiazolidineacetate]
Herbicidal rating SETVI (SETVI (Foxtail, Green); rate 0.0156 kg/ha): 0.0 | Herbicidal rating SETVI (SETVI (Foxtail, Green); rate 0.0313 kg/ha): 0.0 | Herbicidal rating SETVI (SETVI (Foxtail, Green); rate 0.0625 kg/ha): 0.0 | Herbicidal rating ZEAMX (ZEAMX (Corn, Field) [1]; rate 0.0156 kg/ha): 3.0 | Herbicidal rating ZEAMX (ZEAMX (Corn, Field) [1]; rate 0.0313 kg/ha): 3.5 | Herbicidal rating ZEAMX (ZEAMX (Corn, Field) [1]; rate 0.0625 kg/ha): 4.5 | Preemergence herbicidal rating CASOB (CASOB (Sicklepod); rate 0.1250 kg/ha): 0.0 | Preemergence herbicidal rating CASOB (CASOB (Sicklepod); rate 0.2500 kg/ha): 0.0 | Preemergence herbicidal rating ZEAMX (ZEAMX (Corn, Field) [2]; rate 0.1250 kg/ha): 0.0 | Preemergence herbicidal rating ZEAMX (ZEAMX (Corn, Field) [2]; rate 0.2500 kg/ha): 0.0 | Preemergence herbicidal rating TRZAWR ([3]; rate 0.1250 kg/ha): 0.0 | Preemergence herbicidal rating TRZAWR ([3]; rate 0.2500 kg/ha): 0.0 | Preemergence herbicidal rating GLXMAW ([4]; rate 0.1250 kg/ha): 0.0 | Preemergence herbicidal rating GLXMAW ([4]; rate 0.2500 kg/ha): 1.0 | Herbicidal rating ECHCG (ECHCG (Barnyardgrass) [5]; rate 0.0156 kg/ha): 0.0 | Herbicidal rating ECHCG (ECHCG (Barnyardgrass) [5]; rate 0.0313 kg/ha): 0.0 | Herbicidal rating ECHCG (ECHCG (Barnyardgrass) [5]; rate 0.0625 kg/ha): 1.0 | Herbicidal rating ORYSAT (ORYSAT (Rice, Tebonnet); rate 0.0156 kg/ha): 1.5 | Herbicidal rating ORYSAT (ORYSAT (Rice, Tebonnet); rate 0.0313 kg/ha): 1.5 | Herbicidal rating ORYSAT (ORYSAT (Rice, Tebonnet); rate 0.0625 kg/ha): 1.5 | Preemergence herbicidal rating ABUTH (ABUTH (Velvetleaf) [6]; rate 0.1250 kg/ha): 0.0 | Preemergence herbicidal rating ABUTH (ABUTH (Velvetleaf) [6]; rate 0.2500 kg/ha): 2.0 | Preemergence herbicidal rating CHEAL ([7]; rate 0.1250 kg/ha): 1.0 | Preemergence herbicidal rating CHEAL ([7]; rate 0.2500 kg/ha): 7.0 | Herbicidal rating IPOHE ([8]; rate 0.0156 kg/ha): 4.0 | Herbicidal rating IPOHE ([8]; rate 0.0313 kg/ha): 6.0 | Herbicidal rating IPOHE ([8]; rate 0.0625 kg/ha): 9.0 | Preemergence herbicidal rating ECHCG (ECHCG (Barnyardgrass) [9]; rate 0.1250 kg/ha): 0.0 | Preemergence herbicidal rating ECHCG (ECHCG (Barnyardgrass) [9]; rate 0.2500 kg/ha): 0.0 | Herbicidal rating CHEAL ([10]; rate 0.0156 kg/ha): 0.0 | Herbicidal rating CHEAL ([10]; rate 0.0313 kg/ha): 1.0 | Herbicidal rating CHEAL ([10]; rate 0.0625 kg/ha): 1.0 | Herbicidal rating ABUTH (ABUTH (Velvetleaf) [11]; rate 0.0156 kg/ha): 1.0 | Herbicidal rating ABUTH (ABUTH (Velvetleaf) [11]; rate 0.0313 kg/ha): 1.0 | Herbicidal rating ABUTH (ABUTH (Velvetleaf) [11]; rate 0.0625 kg/ha): 5.0 | Preemergence herbicidal rating IPOHE ([12]; rate 0.1250 kg/ha): 1.0 | Preemergence herbicidal rating IPOHE ([12]; rate 0.2500 kg/ha): 0.0
